From patent publication US7235532B2, “Angiogenic agents and their uses” (Centre National de la Recherche Scientfique, priority 2000, dated 2007)

Experiments:
[1] = tested on: chick embryo chorioallantoic membrane; experiment: chick embryo chorioallantoic membrane (CAM) vascularization; format: in vivo
Method: FIGS. 2a, 2b and 2c: Effect of AcSDKP (SEQ ID NO: 1) and of analogues thereof on the vascularization of the chick embryo chorioallantoic membrane (CAM). FIG. 2A discloses SEQ ID NOS: 1 and 27, respectively, in order of appearance.
The following experiments were carried out on the chick embryo chorioallantoic membrane experimental model and the activity of AcSDKP (SEQ ID NO: 1) and of analogues thereof was tested on this model. […] The increase in the density of vascularization varies depending on the dose studied, with a maximum effect for AcSDKP (SEQ ID NO: 1) and AcSDKP-NH2 (SEQ ID NO: 27) at concentrations of between 10^−9 M and 10^−7 M (FIGS. 2a, 2b and 2c).

[2] = tested on: endothelial cells originating from bovine brain capillaries (BBC); experiment: growth of endothelial cells originating from bovine brain capillaries, in vitro; format: cell-based
Excerpt: (§1) FIGS. 1a, 1b and 1c: AcSDKP (SEQ ID NO: 1) stimulates the growth of bovine (BBC) and human (HUVEC and EA.hy926) endothelial cells, in vitro.
(§2) The mitogenic effect of AcSDKP (SEQ ID NO: 1) manifests itself at concentrations ranging between 10^−6 and 10^−11 M, with a maximum for 10^−9 M.

Sprague-Dawley rats = experiment: pedicled ventral skin flap model; format: in vivo, rat; conditions: 5 μg/kg/injection s.c., after surgery then 5 times at 12 hour intervals
Excerpt: Given the ability of angiogenic factors to stimulate, in vivo, the formation of new vessels in lesioned regions which are characterized by a deficiency in vascularization, we studied the effectiveness of AcSDKP (SEQ ID NO: 1) in promoting tissue lesion repair, using a skin flap model. In fact, the distal necrosis of skin flaps generally results from rupturing of the vascular network and therefore from an insufficiency of arterial flow, which poses considerable problems in the fields of plastic and reconstructive surgery.
Pedicled ventral skin flaps (6×6 cm) (left inguinal pedicle) were made in the Sprague-Dawley rats.
AcSDKP (SEQ ID NO: 1) was administered at the dose of 5 μg/kg/ injection (250 μl/injection) immediately after the surgical intervention, and then again 5 times at 12 hour intervals. […] From a macroscopic point of view, the decrease in necrosis is accompanied by the increase in the density of the vascularization over the internal surface of the flaps.

total marrow cells = experiment: adhesion of marrow cells to components of the extracellular matrix, in vitro; format: cell-based; conditions: fibronectin, collagen IV and laminin
Excerpt: The optimum concentration of AcSDKP (SEQ ID NO: 1) in this type of model is between 10^−6 and 10^−8 M.

[3] = tested on: endothelial cells (EA.hy926); experiment: formation of vascular tubes in Matrigel in vitro; format: cell-based, human; conditions: 6 hours exposure
Method: FIG. 3: Effect of AcSDKP (SEQ ID NO: 1) on the formation of vascular tubes, in vitro, by endothelial cells (EA.hy926) in Matrigel.
The maximum stimulations, corresponding to an increase of 60% and 58%, respectively, were observed after exposure of the cells to the tetrapeptide for 6 hours.

[4] = tested on: HUVEC human endothelial cells; experiment: adhesion of HUVEC to extracellular matrix components, preliminary experiments; format: cell-based; conditions: compared with marrow cell results
Excerpt: It is clearly established that these interactions between endothelial cells and the extracellular matrix are determinant for the neovascularization and are involved at various steps of angiogenesis. Specifically, the extracellular matrix influences the proliferation and the migration of vascular endothelial cells, and also their ability to differentiate and to organize into capillaries in order to form new functional vessels suited to their tissue microenvironment.

Sprague-Dawley rat = experiment: vascular invasion in vivo of Matrigel placed under the skin
Excerpt: In vivo, AcSDKP (SEQ ID NO: 1) induces, in a dose-dependent manner, the vascular invasion of Matrigel placed under the skin of the animal (Sprague-Dawley rat). In this experiment, AcSDKP (SEQ ID NO: 1) was mixed with the Matrigel before implantation. Seven days later, the animals were sacrificed and the Matrigel samples were taken and fixed in formol, and were the subject of a histological study. […] For the quantification, the vascular sections were counted on 10 consecutive fields (surface area =32 mm^2) from the richest zone.

[5] = tested on: immortalized HUVEC cell line (EA.hy926); experiment: growth of immortalized HUVEC cell line, in vitro; format: cell-based, human
Excerpt: as §1, §2

[6] = tested on: human umbilical cord vein endothelial cells (HUVEC); experiment: growth of human umbilical cord vein endothelial cells, in vitro; format: cell-based
Excerpt: as §1, §2

normal rats = experiment: angiography of abdominal walls after injection into abdominal muscle; format: in vivo, rat
Method: In these experiments, AcSDKP (SEQ ID NO: 1) was injected into the abdominal muscle in normal rats (treatment twice a day for […]). […] It should be emphasized that this effect remains over time (observations made one month after the start of treatment).

CH3CO-Ser-Asp-Lys-Pro-NH2 [AcSDKP-NH2]
neovascularization of CAM [1]: significantly induced neovascularization

CH3CO-Ser-Asp-Lys-Pro-OH (Ac-SDKP-OH) [AcSDKP, tetrapeptide acetyl-Ser-Asp-Lys-Pro]
concentration of maximum mitogenic effect [2]: 10^−9 M
growth of endothelial cells ([2]; in vitro): significantly stimulates the growth
increase in survival of the flaps compared to the controls (Sprague-Dawley rats): 10%
adhesion of marrow cells to extracellular matrix components (total marrow cells): increases the adhesion
increase of total surface area of the vascular network compared to control (maximum stimulation) ([3]; 10^−9 M): 60%
increase of total surface area of the vascular network compared to control (maximum stimulation) ([3]; 10^−11 M): 58%
adhesion to extracellular matrix components [4]: Comparable results
Number of vessels (% increase compared to control) (Sprague-Dawley rat; 10^−5 M, Exp. 1): 60%
Number of vessels (% increase compared to control) (Sprague-Dawley rat; 10^−5 M, Exp. 2): 185%
Number of vessels (% increase compared to control) (Sprague-Dawley rat; 10^−6 M, Exp. 2): 121%
Number of vessels (% increase compared to control) (Sprague-Dawley rat; 10^−7 M, Exp. 1): 294%
Number of vessels (% increase compared to control) (Sprague-Dawley rat; 10^−7 M, Exp. 2): 118%
Number of vessels (% increase compared to control) (Sprague-Dawley rat; 10^−7 M, Exp. 3): 139%
Number of vessels (% increase compared to control) (Sprague-Dawley rat; 10^−8 M, Exp. 2): 223%
Number of vessels (% increase compared to control) (Sprague-Dawley rat; 10^−9 M, Exp. 1): 108%
Number of vessels (% increase compared to control) (Sprague-Dawley rat; 10^−9 M, Exp. 2): 61%
Number of vessels (% increase compared to control) (Sprague-Dawley rat; 10^−9 M, Exp. 3): 197%
vessels within the Matrigel compared to control Matrigel (Sprague-Dawley rat; mixed with Matrigel before implantation, 7 days): much greater number of vessels
neovascularization of CAM [1]: significantly induced neovascularization
concentration of maximum mitogenic effect ([5]; EA.hy926): 10^−9 M
growth of endothelial cells ([5]; EA.hy926, in vitro): significantly stimulates the growth
concentration of maximum mitogenic effect [6]: 10^−9 M
growth of endothelial cells ([6]; in vitro): significantly stimulates the growth
vascularization of abdominal walls (angiography) (normal rats; 5 μg/kg/injection into abdominal muscle, twice a day, sacrifice day 8): more developed vascularization
vascularization of abdominal walls (angiography) (normal rats; 50 μg/kg/injection into abdominal muscle): No significant modification of the vascularization

FGFb: fibroblast growth factor used as comparison angiogenic factor
Number of vessels (% increase compared to control) (Sprague-Dawley rat; 50 ng/ml, Exp. 2): 297%
